Columns and labels:
Format in all cases: cell-based
[1] = system: Aspergillus fumigatus; assay: Antifungal activity in vitro, resazurin growth inhibition: Aspergillus fumigatus (B42928)
Method: (§1) The standard susceptibility screen is performed in 96-well plates (U-bottom, Greiner Bio-One). Serial dilutions (2-fold or 4-fold) of 20 mM compound stock solutions are made in 100% DMSO, followed by an intermediate dilution step in water. These serial dilutions (10 μl) are then spotted onto test-plates that can be stored in the dark at 4° C. for a maximum period of 2 weeks. An adequate broad dose-range is included with 64 μM as the highest in-test concentration. The culture medium RPMI-1640 is supplemented with L-glutamine, 2% glucose and buffered with 3-(N-morpholino)-propanesulfonic acid (MOPS) at pH 7.0±0.1.
(§2) The different fungal species/isolates (Table 3a) are cryopreserved and 1/1000 diluted in medium just prior to use. A standard inoculum of 200 μl containing 10^3 colony-forming unit (cfu) is then added to each well. A positive control (100% growth=fungal culture without antifungal) and a negative control (0% growth ═RPMI-MOPS medium) are included on each plate. Optimal incubation time and temperature are dependent on the fungal species and vary from 24 h for yeasts (37° C.) to one week or more for dermatophytes (27° C.). Inhibition of fungal growth is measured after adding 10 μl of 0.005% (w/v) resazurin (Sigma Aldrich) to each well, based on the principle that living cells convert the non-fluorescent blue resazurin into the pink and fluorescent resorufin, allowing fluorimetric reading (λex 550 nm and λem 590 nm) after an additional incubation period (‘resa’ time mentioned in Table 3a).

[2] = system: Microsporum canis; assay: Antifungal activity in vitro, resazurin growth inhibition: Microsporum canis (B68128)
Method: as §1, §2

[3] = system: Cryptococcus neoformans; assay: Antifungal activity in vitro, resazurin growth inhibition: Cryptococcus neoformans (B66663)
Method: as §1, §2

[4] = system: Trichophyton rubrum; assay: Antifungal activity in vitro, resazurin growth inhibition: Trichophyton rubrum (B68183)
Method: as §1, §2

[5] = system: Trichophyton mentagrophytes; assay: Antifungal activity in vitro, resazurin growth inhibition: Trichophyton mentagrophytes (B70554)
Method: as §1, §2

[6] = system: Candida parapsilosis; assay: Antifungal activity in vitro, resazurin growth inhibition: Candida parapsilosis (B66126)
Method: as §1, §2

[7] = system: Sporothrix schenkii; assay: Antifungal activity in vitro, resazurin growth inhibition: Sporothrix schenkii (B62482)
Method: as §1, §2

SMILES | Inf. E: Aspergillus fumigatus B42928, pIC50 [1] | Inf. B: Microsporum canis B68128, pIC50 [2] | Inf. F: Cryptococcus neoformans B66663, pIC50 [3] | Inf. C: Trichophyton rubrum B68183, pIC50 [4] | Inf. G: Trichophyton mentagrophytes B70554, pIC50 [5] | Inf. D: Candida parapsilosis B66126, pIC50 [6] | Inf. A: Sporothrix schenkii B62482, pIC50 [7]
COc1ccc2oc(C3=NCc4ccc(Cl)cc4-n4cccc43)cc2c1 [Compound 147] | <4.19 | 5.66 | <4.19 | 5.35 | <4.19 | <4.19 | <4.19
Cc1cccc2c1CN=C(c1cnc(C(F)(F)F)nc1)c1cccn1-2 [Compound 103] | <4.19 | <4.19 | <4.19 | 4.49 | <4.19 | <4.19 | <4.19
Clc1cccc2c1CN=C(c1ccc3scc(Cl)c3c1)c1cccn1-2 [Compound 177] | <4.19 | <4.19 | 5.73 | <4.19 | <4.19 | <4.19 | <4.19
Cc1ccc2cc(C3NCc4c(Cl)cccc4-n4cccc43)oc2c1.Cl (racemic) [Compound 39] | 5.52 | 5.52 | <4.19 | 5.15 | 5.15 | <4.19 | 5.52
Fc1cc(F)c2c(c1)-n1cccc1C(c1ccc3occ(Cl)c3c1)=NC2 [Compound 154] | <4.19 | <4.19 | <4.19 | <4.19 | <4.19 | <4.19 | <4.19
Cc1ccc(Cl)c2c1-n1cccc1C(c1cc3ccccc3s1)=NC2 [Compound 169] | <4.19 | 5.00 | <4.19 | 6.01 | <4.19 | <4.19 | <4.19
Cl.c1ccc2c(c1)CNC(c1cc3ccccc3s1)c1cccn1-2 (racemic) [Compound 52] | 5.30 | 5.70 | 6.00 | 6.13 | 5.70 | <4.19 | 5.40
Clc1ccc2c(c1)-n1cccc1C(c1ccc3scc(Cl)c3c1)=NC2 [Compound 178] | 5.93 | <4.19 | 6.49 | 4.37 | 4.26 | <4.19 | <4.19
Cc1cc(C2=NCc3ccccc3-n3cccc32)ccn1 [Compound 95] | <4.49 | <4.49 | <4.49 | 5.17 | 4.58 | <4.49 | <4.49
COc1cccc2cc(C3=NCc4ccc(Cl)cc4-n4cccc43)oc12 [Compound 142] | <4.19 | <4.19 | <4.19 | 5.64 | <4.19 | <4.19 | <4.19
Cl.Clc1cc(Cl)c2c(c1)-n1cccc1C(c1cc3ccccc3o1)NC2 (racemic) [Compound 31] | <4.19 | 5.59 | <4.19 | 5.31 | 4.87 | <4.19 | <4.19
COc1cccc2cc(C3=NCc4c(Cl)cc(Cl)cc4-n4cccc43)oc12 [Compound 145] | <4.19 | 4.81 | <4.19 | 5.11 | <4.19 | <4.19 | <4.19
FC(F)(F)c1nc2cc(C3=NCc4c(Cl)cccc4-n4cccc43)ccc2s1 [Compound 193] | <4.19 | <4.19 | <4.19 | <4.19 | <4.19 | <4.19 | <4.19
Cl.Clc1cccc2c1CNC(c1nc3ccccc3s1)c1cccn1-2 (racemic) [Compound 59] | <4.19 | 6.22 | <4.19 | 6.47 | 6.00 | <4.19 | 4.85
COc1cccc2cc(C3NCc4ccc(Cl)cc4-n4cccc43)oc12.Cl (racemic) [Compound 42] | <4.19 | 4.19 | 4.89 | 5.06 | 4.49 | <4.19 | <4.19
Fc1cccc2c1CN=C(c1ccc(C(F)(F)F)nc1)c1cccn1-2 [Compound 90] | <4.19 | 5.42 | <4.19 | 6.19 | 5.33 | <4.19 | <4.19
CCc1ccc(C2=NCc3c(Cl)cccc3-n3cccc32)nc1 [Compound 72] | <4.49 | 5.61 | <4.49 | 6.05 | <4.49 | <4.49 | <4.49
FC(F)(F)c1ncc(C2=NCc3ccccc3-n3cccc32)cn1 [Compound 101] | <4.19 | 4.56 | <4.19 | 5.23 | 5.57 | <4.19 | <4.19
Cc1ccc2cc(C3NCc4c(C)cccc4-n4cccc43)oc2c1.Cl (racemic) [Compound 40] | <4.19 | 5.52 | <4.19 | 4.77 | 4.47 | <4.19 | <4.19
Cl.c1ccc2c(c1)CNC(c1cc3ccccc3o1)c1cccn1-2 (racemic) [Compound 29] | <4.19 | 5.30 | 4.80 | 5.70 | 5.30 | <4.19 | <4.19
Clc1ccc(Cl)c2c1CN=C(c1ccc3ccoc3c1)c1cccn1-2 [Compound 151] | <4.19 | <4.19 | <4.19 | 4.95 | <4.19 | <4.19 | <4.19
Cl.Clc1cccc2c1CNC(c1ccc3scc(Cl)c3c1)c1cccn1-2 (racemic) [Compound 58] | 4.48 | 5.08 | 4.58 | 6.29 | 5.09 | <4.19 | <4.19

From patent US9493468B2, “Antifungal 5,6-dihydro-4H-pyrrolo[1,2-a][1,4]benzo-diazepines and 6H-pyrrolo[1,2-a][1,4]benzodiazepines substituted with heterocyclic derivatives” (Janssen Pharmaceutica NV, priority 2011, dated 2016)
